Legend:
[1] = biological target: human CB2 receptors (Homo sapiens (Human), UniProt P34972); experiment: cAMP assay, CHO cells expressing human CB2 receptors; assay type: cell-based; settings: functional cAMP assay, CHO cells expressing human CB2; read-out: EC50 CB2 human
Procedure, shortened: (§1)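 Transfected CHO cells were preincubated in Krebs Ringer bicarbonate buffer with 1 mM IBMX for 30 min at 30 °C, then exposed to compound for 30 min at 30 °C. cAMP was measured by time-resolved FRET (730/645 nm) against a standard curve spanning 10 μM to 0.13 nM. EC50 values derived from concentration–response data.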

[2] = biological target: human CB1 receptors (Homo sapiens (Human), UniProt P21554); experiment: cAMP assay, CHO cells expressing human CB1 receptors; assay type: cell-based; settings: functional cAMP assay, CHO cells expressing human CB1; read-out: EC50 CB1 human
Procedure, shortened: as §1

Chain of human CB1 receptors (P21554 whole entry): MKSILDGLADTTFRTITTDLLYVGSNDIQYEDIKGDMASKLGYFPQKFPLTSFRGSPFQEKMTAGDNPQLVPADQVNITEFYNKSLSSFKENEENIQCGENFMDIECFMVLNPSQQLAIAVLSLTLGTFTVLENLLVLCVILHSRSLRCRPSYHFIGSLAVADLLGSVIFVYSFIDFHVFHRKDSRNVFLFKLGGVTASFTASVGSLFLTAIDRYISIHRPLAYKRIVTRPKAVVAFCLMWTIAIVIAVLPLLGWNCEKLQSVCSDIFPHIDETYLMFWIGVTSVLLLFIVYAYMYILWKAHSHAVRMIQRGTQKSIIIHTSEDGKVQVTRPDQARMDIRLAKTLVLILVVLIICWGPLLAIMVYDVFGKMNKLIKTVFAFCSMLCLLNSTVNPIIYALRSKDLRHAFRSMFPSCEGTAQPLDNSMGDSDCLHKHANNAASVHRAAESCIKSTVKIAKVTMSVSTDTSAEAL
Chain of human CB2 receptors (P34972 whole entry): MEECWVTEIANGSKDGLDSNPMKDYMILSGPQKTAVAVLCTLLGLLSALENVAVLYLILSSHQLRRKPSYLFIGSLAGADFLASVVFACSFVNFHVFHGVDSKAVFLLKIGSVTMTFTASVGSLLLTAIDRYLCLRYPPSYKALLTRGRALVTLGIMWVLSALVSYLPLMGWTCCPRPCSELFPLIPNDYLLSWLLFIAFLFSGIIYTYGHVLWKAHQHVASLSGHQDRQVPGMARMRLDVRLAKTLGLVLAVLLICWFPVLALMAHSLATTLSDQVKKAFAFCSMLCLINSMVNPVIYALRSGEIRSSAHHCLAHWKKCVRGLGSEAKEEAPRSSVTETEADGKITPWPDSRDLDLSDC

Row | Structure (SMILES) | EC50 [1] [nM] | EC50 [2] [nM]
1 | CC(C)(C)c1nc(-c2cc(OCC3CCCO3)c(C3CC3)cn2)no1 (stereo not drawn) [Example 56, 5-tert-butyl-3-[5-cyclopropyl-4-(oxolan-2-ylmethoxy)pyridin-2-yl]-1,2,4-oxadiazole] | 44.7 | > 10000
2 | CC(C)(C)c1nc(-c2cc(N3CC(F)(F)C(F)(F)C3)c(C3CC3)cn2)no1 [Example 74, 5-tert-butyl-3-[5-cyclopropyl-4-(3,3,4,4-tetrafluoropyrrolidin-1-yl)pyridin-2-yl]-1,2,4-oxadiazole] | 4.7 | > 10000
3 | c1c(-c2nc(C3CC3)no2)ncc(C2CC2)c1OCC1CC1 [Example 3, 3-cyclopropyl-5-[5-cyclopropyl-4-(cyclopropylmethoxy)pyridin-2-yl]-1,2,4-oxadiazole] | 1.2 | > 10000
4 | C[C@@H](Oc1cc(-c2noc(C(C)(C)C)n2)ncc1C1CC1)C(F)(F)F [Example 49, 5-tert-butyl-3-[5-cyclopropyl-4-[(2R)-1,1,1-trifluoropropan-2-yl]oxypyridin-2-yl]-1,2,4-oxadiazole] | 51.5 | > 10000
5 | CC(C)(C)c1nc(-c2cc(OC3CCOC3)c(C3CC3)cn2)no1 (stereo not drawn) [Example 62, 5-tert-butyl-3-[5-cyclopropyl-4-(oxolan-3-yloxy)pyridin-2-yl]-1,2,4-oxadiazole] | 17.8 | > 10000
6 | c1c(-c2nc(C3CCCC3)no2)ncc(C2CC2)c1OCC1CC1 [Example 4, 3-cyclopentyl-5-[5-cyclopropyl-4-(cyclopropylmethoxy)pyridin-2-yl]-1,2,4-oxadiazole] | 2.1 | > 10000
7 | CCC1(CC)COC(c2cc(OCC3CC3)c(C3CC3)cn2)=N1 [Example 11, 2-[5-cyclopropyl-4-(cyclopropylmethoxy)pyridin-2-yl]-4,4-diethyl-5H-1,3-oxazole] | 0.6 | > 10000
8 | CC(C)CC1(C)N=C(c2cc(OCC(F)(F)F)c(C3CC3)cn2)NC1=O (stereo not drawn) [Example 69, 2-[5-cyclopropyl-4-(2,2,2-trifluoroethoxy)pyridin-2-yl]-4-methyl-4-(2-methylpropyl)-1H-imidazol-5-one] | 9 | > 10000
9 | OC1(c2nc(-c3cc(OCC(F)(F)F)c(C4CC4)cn3)no2)CC1 [Example 37, 1-[3-[5-cyclopropyl-4-(2,2,2-trifluoroethoxy)pyridin-2-yl]-1,2,4-oxadiazol-5-yl]cyclopropan-1-ol] | 236 | > 10000
10 | COC(C)CCOc1cc(-c2noc(C(C)(C)C)n2)ncc1C1CC1 (stereo not drawn) [Example 89, 5-tert-butyl-3-[5-cyclopropyl-4-(3-methoxybutoxy)pyridin-2-yl]-1,2,4-oxadiazole] | 16.2 | > 10000
11 | CC(C)(C)c1nc(-c2cc(OCC3CC3)c(N3CCC34COC4)cn2)no1 [Example 35, 1-[6-(5-tert-butyl-1,2,4-oxadiazol-3-yl)-4-(cyclopropylmethoxy)pyridin-3-yl]-6-oxa-1-azaspiro[3.3]heptane] | 32.8 | > 10000
12 | CC(C)(C)c1nc(-c2cc(OC3CCCNC3)c(C3CC3)cn2)no1 (stereo not drawn) [Example 104, 5-tert-butyl-3-(5-cyclopropyl-4-piperidin-3-yloxypyridin-2-yl)-1,2,4-oxadiazole] | 69.8 | > 10000
13 | CC(C)(C)c1c[nH]c(-c2cc(OCC(F)(F)F)c(N3CC(F)(F)C3)cn2)n1 [Example 64, 2-(5-tert-butyl-1H-imidazol-2-yl)-5-(3,3-difluoroazetidin-1-yl)-4-(2,2,2-trifluoroethoxy)pyridine] | 87.5 | > 10000
14 | CC(C)(C)c1nc(-c2cc(Oc3ccc(S(C)(=O)=O)cc3)c(C3CC3)cn2)no1 [Example 75, 5-tert-butyl-3-[5-cyclopropyl-4-(4-methylsulfonylphenoxy)pyridin-2-yl]-1,2,4-oxadiazole] | 288 | > 10000
15 | CC(C)(C)c1nc(-c2cc(Oc3ccc(F)cc3)c(C3(F)COC3)cn2)no1 [Example 110, 5-tert-butyl-3-[5-(3-fluorooxetan-3-yl)-4-(4-fluorophenoxy)pyridin-2-yl]-1,2,4-oxadiazole] | 103 | > 10000
16 | CC1(c2nc(-c3cc(OCC4CC4)c(C4CC4)cn3)no2)COC1 [Example 28, 3-[5-cyclopropyl-4-(cyclopropylmethoxy)pyridin-2-yl]-5-(3-methyloxetan-3-yl)-1,2,4-oxadiazole] | 16 | > 10000
17 | CC1(C)CN=C(c2cc(OCC(F)(F)F)c(C3CC3)cn2)O1 [Example 41, 2-[5-cyclopropyl-4-(2,2,2-trifluoroethoxy)pyridin-2-yl]-5,5-dimethyl-4H-1,3-oxazole] | 53.9 | > 10000
18 | CC(C)(C)c1nc(-c2cc(OC3CCCOC3)c(C3CC3)cn2)no1 (stereo not drawn) [Example 88, 5-tert-butyl-3-[5-cyclopropyl-4-(oxan-3-yloxy)pyridin-2-yl]-1,2,4-oxadiazole] | 52.9 | > 10000
19 | CC(C)(C)c1nc(-c2cc(N3CCC(F)(F)C3)c(C3CC3)cn2)no1 [Example 77, 5-tert-butyl-3-[5-cyclopropyl-4-(3,3-difluoropyrrolidin-1-yl)pyridin-2-yl]-1,2,4-oxadiazole] | 2.1 | > 10000
20 | C[C@H](Oc1cc(-c2nnc(C(C)(C)C)o2)ncc1C1CC1)C(F)(F)F [Example 120, 2-tert-butyl-5-[5-cyclopropyl-4-[(2S)-1,1,1-trifluoropropan-2-yl]oxypyridin-2-yl]-1,3,4-oxadiazole] | 63 | > 10000
21 | CC(CN1CCCCC1)Oc1cc(-c2noc(C(C)(C)C)n2)ncc1C1CC1 (stereo not drawn) [Example 96, 5-tert-butyl-3-[5-cyclopropyl-4-(1-piperidin-1-ylpropan-2-yloxy)pyridin-2-yl]-1,2,4-oxadiazole] | 75.9 | 1010
22 | c1ccc(-c2noc(-c3cc(OCC4CC4)c(C4CC4)cn3)n2)cc1 [Example 2, 5-[5-cyclopropyl-4-(cyclopropylmethoxy)pyridin-2-yl]-3-phenyl-1,2,4-oxadiazole] | 23.1 | > 10000
23 | CC(C)(C)c1nc(-c2cc(OC3CCOCC3)c(C3CC3)c(Cl)n2)no1 [Example 114, 5-tert-butyl-3-[6-chloro-5-cyclopropyl-4-(oxan-4-yloxy)pyridin-2-yl]-1,2,4-oxadiazole] | 3.7 | 455
24 | CCN(CC)CC(C)Oc1cc(-c2noc(C(C)(C)C)n2)ncc1C1CC1 (stereo not drawn) [Example 101, 2-[2-(5-tert-butyl-1,2,4-oxadiazol-3-yl)-5-cyclopropylpyridin-4-yl]oxy-N,N-diethylpropan-1-amine] | 142 | > 10000
25 | C[C@H](Oc1cc(-c2noc(C(C)(C)C)n2)ncc1C1CC1)C(F)(F)F [Example 48, 5-tert-butyl-3-[5-cyclopropyl-4-[(2S)-1,1,1-trifluoropropan-2-yl]oxypyridin-2-yl]-1,2,4-oxadiazole] | 19 | > 10000
26 | OCc1nc(-c2cc(OCC3CC3)c(C3CC3)cn2)no1 [Example 18, [3-[5-cyclopropyl-4-(cyclopropylmethoxy)pyridin-2-yl]-1,2,4-oxadiazol-5-yl]methanol] | 110 | > 10000
27 | CC(C)(C)c1nc(-c2cc(N3CCOCC3)c(C3CC3)cn2)no1 [Example 78, 4-[2-(5-tert-butyl-1,2,4-oxadiazol-3-yl)-5-cyclopropylpyridin-4-yl]morpholine] | 42.2 | > 10000

— patent US10308659B2, “Pyridine derivatives” (Hoffmann-La Roche Inc., priority 2013, dated 2019)
